Laboratory results taken from PubChem BioAssay AID1963437 (Molecular Pharmacology Branch, DTP, NCI, 2024).

Test system: OVCAR-8 complex spheroid, growth inhibition
Assay: Anticancer human tumor OVCAR-8 cell line growth inhibition [Asc];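 further: spheroids exposed to agents for 7 days before readout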;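 on viability, T/C: percent viability relative to DMSO vehicle wells taken as 100%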
Conditions: for IC50: curve of first compound; for viability, T/C: stronger effect = lower value
Method in brief: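 Spheroid model: tumor line + HUVEC + hMSC. Single agents and combinations; top conc. at/near clinical Cmax (10 microM if undetermined), half-log dilutions. DMSO stocks at 800-fold test concentration.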

[1] = second compound 0.00316 µM, first compound 0.0316 µM
[2] = second compound 0.00316 µM, first compound 0.1 µM
[3] = second compound 0.00316 µM, first compound 0.316 µM
[4] = second compound 0.00316 µM, first compound 1 µM
[5] = second compound 0.00316 µM, first compound 3.16 µM
[6] = second compound 0.00316 µM, first compound 10 µM
[7] = second compound 0.01 µM, first compound 0.0316 µM
[8] = second compound 0.01 µM, first compound 0.1 µM
[9] = second compound 0.01 µM, first compound 0.316 µM
[10] = second compound 0.01 µM, first compound 1 µM
[11] = second compound 0.01 µM, first compound 3.16 µM
[12] = second compound 0.01 µM, first compound 10 µM
[13] = second compound 0.0316 µM, first compound 0.0316 µM
[14] = second compound 0.0316 µM, first compound 0.1 µM
[15] = second compound 0.0316 µM, first compound 0.316 µM
[16] = second compound 0.0316 µM, first compound 1 µM
[17] = second compound 0.0316 µM, first compound 3.16 µM
[18] = second compound 0.0316 µM, first compound 10 µM
[19] = second compound 0.1 µM, first compound 0.0316 µM
[20] = second compound 0.1 µM, first compound 0.1 µM
[21] = second compound 0.1 µM, first compound 0.316 µM
[22] = second compound 0.1 µM, first compound 1 µM
[23] = second compound 0.1 µM, first compound 3.16 µM
[24] = second compound 0.1 µM, first compound 10 µM
[25] = second compound 0.316 µM, first compound 0.0316 µM
[26] = second compound 0.316 µM, first compound 0.1 µM
[27] = second compound 0.316 µM, first compound 0.316 µM
[28] = second compound 0.316 µM, first compound 1 µM
[29] = second compound 0.316 µM, first compound 3.16 µM
[30] = second compound 0.316 µM, first compound 10 µM
[31] = second compound 1 µM, first compound 0.0316 µM
[32] = second compound 1 µM, first compound 0.1 µM
[33] = second compound 1 µM, first compound 0.316 µM
[34] = second compound 1 µM, first compound 1 µM
[35] = second compound 1 µM, first compound 3.16 µM
[36] = second compound 1 µM, first compound 10 µM

`C#Cc1c(F)ccc2cc(O)cc(-c3ncc4c(N5CC6CCC(C5)N6)nc(OCC56CCCN5CC(F)C6)nc4c3F)c12` (stereo not drawn) + CNC(C)C(=O)NC1CN(S(=O)(=O)c2cccc(S(=O)(=O)N3CCC4CCC(C(=O)NC(c5ccccc5)c5ccccc5)N4C(=O)C(NC(=O)C(C)NC)C3)c2)CCC2CCC(C(=O)NC(c3ccccc3)c3ccccc3)N2C1=O was tested, and the IC50 (second compound 0.00316 µM) was over 10 µM, the IC50 (second compound 0.01 µM) was over 10 µM and the IC50 (second compound 0.0316 µM) was over 10 µM. The IC50 (second compound 0.1 µM) was over 10 µM, the IC50 (second compound 0.316 µM) was over 10 µM and the IC50 (second compound 1 µM) was over 10 µM. The viability, T/C [1] was 106%, the viability, T/C [2] was 93.7% and the viability, T/C [3] was 87.8%. For the same molecule, the viability, T/C [4] was 90.2%, the viability, T/C [5] was 101% and the viability, T/C [6] was 135%. The viability, T/C [7] was 104%, the viability, T/C [8] was 89.9% and the viability, T/C [9] was 91%. For the same molecule, the viability, T/C [10] was 103%, the viability, T/C [11] was 96.4% and the viability, T/C [12] was 112%. The viability, T/C [13] was 89%, the viability, T/C [14] was 83.2% and the viability, T/C [15] was 83%. For the same molecule, the viability, T/C [16] was 88.2%, the viability, T/C [17] was 96.4% and the viability, T/C [18] was 136%. It also gave a viability, T/C [19] of 80.6%, a viability, T/C [20] of 95.4% and a viability, T/C [21] of 88.4%. It also gave a viability, T/C [22] of 82.7%, a viability, T/C [23] of 85.8% and a viability, T/C [24] of 98.2%. The viability, T/C [25] was 74%, the viability, T/C [26] was 87.6% and the viability, T/C [27] was 80.2%. For the same molecule, the viability, T/C [28] was 89.9%, the viability, T/C [29] was 77.1% and the viability, T/C [30] was 119%. It also gave a viability, T/C [31] of 80.9%, a viability, T/C [32] of 86.1% and a viability, T/C [33] of 112%. It also gave a viability, T/C [34] of 91.6%, a viability, T/C [35] of 88.5% and a viability, T/C [36] of 109%.

For `C=C(F)C(=O)N1CCN(c2nc(OCC3CCCN3C)nc3c2CCN(c2cccc4cccc(Cl)c24)C3)CC1CC#N` (stereo not drawn) + CNC(C)C(=O)NC1CN(S(=O)(=O)c2cccc(S(=O)(=O)N3CCC4CCC(C(=O)NC(c5ccccc5)c5ccccc5)N4C(=O)C(NC(=O)C(C)NC)C3)c2)CCC2CCC(C(=O)NC(c3ccccc3)c3ccccc3)N2C1=O, the IC50 (second compound 0.00316 µM) was 1.63 µM, the IC50 (second compound 0.01 µM) was 1.72 µM and the IC50 (second compound 0.0316 µM) was 1.6 µM. It also gave an IC50 (second compound 0.1 µM) of 0.958 µM, an IC50 (second compound 0.316 µM) of 0.756 µM and an IC50 (second compound 1 µM) of 0.639 µM. It also gave a viability, T/C [1] of 114%, a viability, T/C [2] of 103% and a viability, T/C [3] of 107%. The viability, T/C [4] was 83.1%, the viability, T/C [5] was 4.81% and the viability, T/C [6] was 0.78%. For the same molecule, the viability, T/C [7] was 98.7%, the viability, T/C [8] was 94.6% and the viability, T/C [9] was 96%. For the same molecule, the viability, T/C [10] was 91.2%, the viability, T/C [11] was 4.17% and the viability, T/C [12] was 0.22%. For the same molecule, the viability, T/C [13] was 97.8%, the viability, T/C [14] was 94.1% and the viability, T/C [15] was 96.1%. It also gave a viability, T/C [16] of 81.9%, a viability, T/C [17] of 3.55% and a viability, T/C [18] of 0.26%. The viability, T/C [19] was 83.1%, the viability, T/C [20] was 100% and the viability, T/C [21] was 95.7%. For the same molecule, the viability, T/C [22] was 48.3%, the viability, T/C [23] was 3.72% and the viability, T/C [24] was 0.27%. The viability, T/C [25] was 90%, the viability, T/C [26] was 89.9% and the viability, T/C [27] was 106%. For the same molecule, the viability, T/C [28] was 35.4%, the viability, T/C [29] was 3.15% and the viability, T/C [30] was 0.66%. It also gave a viability, T/C [31] of 78%, a viability, T/C [32] of 90.7% and a viability, T/C [33] of 97.1%. The viability, T/C [34] was 25.4%, the viability, T/C [35] was 2.44% and the viability, T/C [36] was 0.35%.

`C=CC(=O)N1CCN(c2nc(=O)n(-c3c(C)ccnc3C(C)C)c3nc(-c4c(O)cccc4F)c(F)cc23)C(C)C1` (stereo not drawn) + CNC(C)C(=O)NC1CN(S(=O)(=O)c2cccc(S(=O)(=O)N3CCC4CCC(C(=O)NC(c5ccccc5)c5ccccc5)N4C(=O)C(NC(=O)C(C)NC)C3)c2)CCC2CCC(C(=O)NC(c3ccccc3)c3ccccc3)N2C1=O showed an IC50 (second compound 0.00316 µM) of over 10 µM, an IC50 (second compound 0.01 µM) of over 10 µM and an IC50 (second compound 0.0316 µM) of over 10 µM. It also gave an IC50 (second compound 0.1 µM) of over 10 µM, an IC50 (second compound 0.316 µM) of over 10 µM and an IC50 (second compound 1 µM) of over 10 µM. The viability, T/C [1] was 105%, the viability, T/C [2] was 89.3% and the viability, T/C [3] was 105%. The viability, T/C [4] was 98.7%, the viability, T/C [5] was 88.3% and the viability, T/C [6] was 112%. For the same molecule, the viability, T/C [7] was 96.9%, the viability, T/C [8] was 95% and the viability, T/C [9] was 83.6%. It also gave a viability, T/C [10] of 89.2%, a viability, T/C [11] of 90.6% and a viability, T/C [12] of 122%. It also gave a viability, T/C [13] of 94.3%, a viability, T/C [14] of 90.5% and a viability, T/C [15] of 91.2%. The viability, T/C [16] was 81.9%, the viability, T/C [17] was 86.4% and the viability, T/C [18] was 103%. For the same molecule, the viability, T/C [19] was 85.8%, the viability, T/C [20] was 81.4% and the viability, T/C [21] was 89.7%. For the same molecule, the viability, T/C [22] was 86.1%, the viability, T/C [23] was 80% and the viability, T/C [24] was 92.2%. It also gave a viability, T/C [25] of 80%, a viability, T/C [26] of 84.2% and a viability, T/C [27] of 107%. It also gave a viability, T/C [28] of 69.4%, a viability, T/C [29] of 79.6% and a viability, T/C [30] of 90.8%. It also gave a viability, T/C [31] of 68.4%, a viability, T/C [32] of 79.8% and a viability, T/C [33] of 79.1%. For the same molecule, the viability, T/C [34] was 84.7%, the viability, T/C [35] was 65.5% and the viability, T/C [36] was 69.1%.

For `CCN1C(C(=O)NC23CCC(C(=O)O)(CC2)CC3)C(c2cccc(Cl)c2F)C2(C(=O)Nc3cc(Cl)ccc32)C12CCCCC2` (stereo not drawn) + CNC(C)C(=O)NC1CN(S(=O)(=O)c2cccc(S(=O)(=O)N3CCC4CCC(C(=O)NC(c5ccccc5)c5ccccc5)N4C(=O)C(NC(=O)C(C)NC)C3)c2)CCC2CCC(C(=O)NC(c3ccccc3)c3ccccc3)N2C1=O, the IC50 (second compound 0.00316 µM) was over 3 µM, the IC50 (second compound 0.01 µM) was over 3 µM and the IC50 (second compound 0.0316 µM) was over 3 µM. The IC50 (second compound 0.1 µM) was over 3 µM, the IC50 (second compound 0.316 µM) was over 3 µM and the IC50 (second compound 1 µM) was over 3 µM. It also gave a viability, T/C (second compound 0.00316 µM, first compound 0.00949 µM) of 119%, a viability, T/C (second compound 0.00316 µM, first compound 0.03 µM) of 96.5% and a viability, T/C (second compound 0.00316 µM, first compound 0.0949 µM) of 104%. It also gave a viability, T/C (second compound 0.00316 µM, first compound 0.3 µM) of 97.9%, a viability, T/C (second compound 0.00316 µM, first compound 0.949 µM) of 106% and a viability, T/C (second compound 0.00316 µM, first compound 3 µM) of 110%. It also gave a viability, T/C (second compound 0.01 µM, first compound 0.00949 µM) of 98.4%, a viability, T/C (second compound 0.01 µM, first compound 0.03 µM) of 91.1% and a viability, T/C (second compound 0.01 µM, first compound 0.0949 µM) of 95%. It also gave a viability, T/C (second compound 0.01 µM, first compound 0.3 µM) of 84.8%, a viability, T/C (second compound 0.01 µM, first compound 0.949 µM) of 105% and a viability, T/C (second compound 0.01 µM, first compound 3 µM) of 107%. For the same molecule, the viability, T/C (second compound 0.0316 µM, first compound 0.00949 µM) was 85.4%, the viability, T/C (second compound 0.0316 µM, first compound 0.03 µM) was 86.9% and the viability, T/C (second compound 0.0316 µM, first compound 0.0949 µM) was 92.7%. It also gave a viability, T/C (second compound 0.0316 µM, first compound 0.3 µM) of 102%, a viability, T/C (second compound 0.0316 µM, first compound 0.949 µM) of 102% and a viability, T/C (second compound 0.0316 µM, first compound 3 µM) of 118%. For the same molecule, the viability, T/C (second compound 0.1 µM, first compound 0.00949 µM) was 85.3%, the viability, T/C (second compound 0.1 µM, first compound 0.03 µM) was 78.3% and the viability, T/C (second compound 0.1 µM, first compound 0.0949 µM) was 99.8%. The viability, T/C (second compound 0.1 µM, first compound 0.3 µM) was 88.1%, the viability, T/C (second compound 0.1 µM, first compound 0.949 µM) was 118% and the viability, T/C (second compound 0.1 µM, first compound 3 µM) was 103%. For the same molecule, the viability, T/C (second compound 0.316 µM, first compound 0.00949 µM) was 98.8%, the viability, T/C (second compound 0.316 µM, first compound 0.03 µM) was 86.5% and the viability, T/C (second compound 0.316 µM, first compound 0.0949 µM) was 90.2%. For the same molecule, the viability, T/C (second compound 0.316 µM, first compound 0.3 µM) was 78.3%, the viability, T/C (second compound 0.316 µM, first compound 0.949 µM) was 90.4% and the viability, T/C (second compound 0.316 µM, first compound 3 µM) was 97.5%. For the same molecule, the viability, T/C (second compound 1 µM, first compound 0.00949 µM) was 80.5%, the viability, T/C (second compound 1 µM, first compound 0.03 µM) was 79.2% and the viability, T/C (second compound 1 µM, first compound 0.0949 µM) was 95.7%. The viability, T/C (second compound 1 µM, first compound 0.3 µM) was 84.2%, the viability, T/C (second compound 1 µM, first compound 0.949 µM) was 93.3% and the viability, T/C (second compound 1 µM, first compound 3 µM) was 112%.
